Assay results: ChEMBL document CHEMBL3822387 (Bioorg Med Chem, 2016)
Calls of active or inactive are those of the source. The calls are words filed in the database; no cut-off is given here.

Columns and labels:
PC-12 [1] = assay: Neuroprotective activity against H2O2-induced damage in rat PC12 cells assessed as cell viability at 10 uM preincubated for 2 hrs followed by H2O2 addition for 24 hrs by MTT assay; type: functional, cell-based
Acetylcholinesterase [2] = biological target: Acetylcholinesterase (Electrophorus electricus, UniProt O42275)
Description: Inhibition of electric eel ACHE preincubated for 6 mins followed by addition of acetylcholine iodide as substrate by Ellman's method

Cholinesterase [3] = biological target: Cholinesterase (Equus caballus, UniProt P81908)
Description: Inhibition of equine BCHE preincubated for 6 mins followed by addition of S-butyrylcholine iodide as substrate by Ellman's method

Acetylcholinesterase [4] = biological target: T1, Acetylcholinesterase (Homo sapiens, UniProt P22303); assay: Mixed-type inhibition of ACHE (unknown origin) using acetylcholine iodide as substrate by Line weaver-Burk reciprocal plot analysis
Cholinesterase [5] = biological target: T2, Cholinesterase (Homo sapiens, UniProt P06276); assay: Competitive inhibition of BCHE (unknown origin) using […] as substrate by Line weaver-Burk reciprocal plot analysis
[6] = Metal chelating activity of the compound assessed as compound-Cu2+ complex formation by measuring bathochromic shift by UV-vis spectroscopy; type: physicochemical
[7] = Metal chelating activity of the compound assessed as compound-Fe2+ complex formation by measuring maximum absorption wavelength range by UV-vis spectroscopy (reference value: 212 nm); type: physicochemical
[8] = Metal chelating activity of the compound assessed as compound-Fe3+ complex formation by UV-vis spectroscopy by measuring maximum absorption wavelength range by UV-vis spectroscopy (reference value: 212 nm); type: physicochemical
[9] = Metal chelating activity of the compound assessed as compound-Zn2+ complex formation by UV-vis spectroscopy by measuring maximum absorption wavelength range by UV-vis spectroscopy (reference value: 212 nm); type: physicochemical
[10] = Cytotoxicity against rat PC12 cells assessed as reduction in cell viability at 1 to 50 uM measured after 24 hrs by MTT assay; type: cell-based; details: pc-12, 24 h
PC-12 [11] = assay: Neuroprotective activity against H2O2-induced damage in rat PC12 cells assessed as cell viability at 1 to 10 uM preincubated for 2 hrs followed by H2O2 addition for 24 hrs by MTT assay; type: functional, cell-based
Acetylcholinesterase [12] = biological target: T1, Acetylcholinesterase
Description: Inhibition of human erythrocyte ACHE preincubated for 6 mins followed by addition of acetylcholine iodide as substrate by Ellman's method

Cholinesterase [13] = biological target: T2, Cholinesterase
Description: Inhibition of human serum BCHE preincubated for 6 mins followed by addition of S-butyrylcholine iodide as substrate by Ellman's method

in vitro = details: PAMPA

T1 sequence (P22303 whole entry): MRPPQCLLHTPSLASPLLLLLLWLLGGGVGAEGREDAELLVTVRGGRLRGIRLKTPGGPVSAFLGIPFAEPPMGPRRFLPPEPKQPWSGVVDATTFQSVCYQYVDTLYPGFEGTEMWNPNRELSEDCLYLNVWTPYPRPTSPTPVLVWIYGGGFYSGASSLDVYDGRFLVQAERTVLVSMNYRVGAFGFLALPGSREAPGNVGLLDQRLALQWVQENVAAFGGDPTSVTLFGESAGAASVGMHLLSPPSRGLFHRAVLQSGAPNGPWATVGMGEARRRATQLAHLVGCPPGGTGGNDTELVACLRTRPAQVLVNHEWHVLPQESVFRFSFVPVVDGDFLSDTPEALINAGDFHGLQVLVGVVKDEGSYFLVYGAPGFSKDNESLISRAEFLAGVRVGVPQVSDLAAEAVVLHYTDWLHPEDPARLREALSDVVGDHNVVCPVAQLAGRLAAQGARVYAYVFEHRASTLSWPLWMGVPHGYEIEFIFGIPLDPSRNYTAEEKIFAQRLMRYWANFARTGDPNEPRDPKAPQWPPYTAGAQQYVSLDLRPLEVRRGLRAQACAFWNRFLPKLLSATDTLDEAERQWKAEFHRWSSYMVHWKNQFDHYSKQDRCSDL
Chain of Cholinesterase (Equus caballus, UniProt P81908) (P81908 whole entry): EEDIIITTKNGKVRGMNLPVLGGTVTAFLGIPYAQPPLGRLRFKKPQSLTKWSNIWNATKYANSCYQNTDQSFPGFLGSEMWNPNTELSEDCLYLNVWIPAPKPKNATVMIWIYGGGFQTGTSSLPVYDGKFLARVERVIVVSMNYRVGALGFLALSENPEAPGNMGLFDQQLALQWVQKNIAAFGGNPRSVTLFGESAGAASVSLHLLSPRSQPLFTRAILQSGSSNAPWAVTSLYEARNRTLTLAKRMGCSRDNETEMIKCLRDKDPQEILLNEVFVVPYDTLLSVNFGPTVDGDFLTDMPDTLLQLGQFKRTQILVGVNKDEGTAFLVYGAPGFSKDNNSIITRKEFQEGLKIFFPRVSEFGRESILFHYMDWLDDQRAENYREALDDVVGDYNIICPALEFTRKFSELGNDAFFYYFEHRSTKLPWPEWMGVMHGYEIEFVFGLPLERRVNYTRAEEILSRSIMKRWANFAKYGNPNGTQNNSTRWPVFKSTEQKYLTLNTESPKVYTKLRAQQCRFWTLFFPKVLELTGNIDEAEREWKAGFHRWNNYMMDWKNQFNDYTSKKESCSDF
Chain of Acetylcholinesterase (Electrophorus electricus, UniProt O42275) (O42275 whole entry): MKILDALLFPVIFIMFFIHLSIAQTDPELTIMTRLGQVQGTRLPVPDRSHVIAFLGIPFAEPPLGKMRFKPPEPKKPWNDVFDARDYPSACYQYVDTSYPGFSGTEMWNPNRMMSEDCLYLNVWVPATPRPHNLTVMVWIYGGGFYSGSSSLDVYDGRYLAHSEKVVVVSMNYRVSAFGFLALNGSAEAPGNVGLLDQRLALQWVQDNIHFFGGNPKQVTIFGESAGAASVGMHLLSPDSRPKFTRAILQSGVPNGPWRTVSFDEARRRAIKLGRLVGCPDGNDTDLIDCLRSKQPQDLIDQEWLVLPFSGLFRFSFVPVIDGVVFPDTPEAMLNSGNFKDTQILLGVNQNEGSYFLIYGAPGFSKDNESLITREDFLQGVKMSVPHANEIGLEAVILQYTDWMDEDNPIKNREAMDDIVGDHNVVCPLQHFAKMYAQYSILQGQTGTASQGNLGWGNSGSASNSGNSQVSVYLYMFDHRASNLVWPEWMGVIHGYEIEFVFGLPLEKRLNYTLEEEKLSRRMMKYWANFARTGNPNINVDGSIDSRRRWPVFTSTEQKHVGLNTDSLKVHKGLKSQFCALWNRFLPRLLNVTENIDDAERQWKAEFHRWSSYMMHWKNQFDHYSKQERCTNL
T2 sequence (P06276 whole entry): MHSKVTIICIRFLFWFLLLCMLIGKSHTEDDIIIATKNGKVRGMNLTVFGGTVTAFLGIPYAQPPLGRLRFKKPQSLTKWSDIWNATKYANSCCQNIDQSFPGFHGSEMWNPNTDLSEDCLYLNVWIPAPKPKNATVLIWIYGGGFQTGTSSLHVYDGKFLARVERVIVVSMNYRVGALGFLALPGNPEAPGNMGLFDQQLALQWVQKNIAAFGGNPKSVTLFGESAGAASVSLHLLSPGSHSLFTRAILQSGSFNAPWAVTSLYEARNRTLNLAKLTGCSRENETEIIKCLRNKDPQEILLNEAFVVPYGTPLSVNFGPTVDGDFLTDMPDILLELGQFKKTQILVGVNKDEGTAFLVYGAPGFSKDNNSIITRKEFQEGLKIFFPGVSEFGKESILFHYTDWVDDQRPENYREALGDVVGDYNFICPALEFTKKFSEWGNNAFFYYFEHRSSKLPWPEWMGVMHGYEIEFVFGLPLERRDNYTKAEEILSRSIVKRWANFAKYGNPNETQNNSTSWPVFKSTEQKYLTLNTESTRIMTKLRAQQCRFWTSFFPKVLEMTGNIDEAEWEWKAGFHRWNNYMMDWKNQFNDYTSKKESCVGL

SMILES: Cc1c(C)c2c(c(C)c1O)CCC(C)(C(=O)O)O2 (centres undefined)
- Activity (PC-12 [1]): Active

SMILES: O=C(CC1CCN(Cc2cccc(Cl)c2)CC1)NCCc1c[nH]c2ccccc12
- IC50 (Acetylcholinesterase [2]): 1630 nM
- IC50 (Cholinesterase [3]): 950 nM

SMILES: O=C(CCc1c[nH]c2ccccc12)NCCC1CCN(Cc2ccccc2)CC1
- inhibition (Acetylcholinesterase [4]): Active
- inhibition (Cholinesterase [5]): Active
- Activity [6]: 219 nm
- Activity [7]: 216 nm
- Activity [8]: 216 nm
- Activity [9]: 214 nm
- Activity [10]: Non-toxic
- Activity (PC-12 [11]): Active
- IC50 (Acetylcholinesterase [2]): 193 nM
- IC50 (Cholinesterase [3]): 73 nM
- IC50 (Acetylcholinesterase [12]): 273 nM
- IC50 (Cholinesterase [13]): 56 nM
- Papp at 50 ug/ml (in vitro): 6.98 ×10⁻⁶ cm/s

SMILES: O=C(NCCc1c[nH]c2ccccc12)C1CCN(Cc2ccccc2[N+](=O)[O-])CC1
- IC50 (Acetylcholinesterase [2]): 31500 nM
- IC50 (Cholinesterase [3]): 10800 nM

SMILES: COc1ccc2[nH]cc(CCNC(=O)CC3CCN(Cc4ccccc4C)CC3)c2c1
- Activity [10]: Non-toxic
- Activity (PC-12 [11]): Active
- IC50 (Acetylcholinesterase [2]): 2200 nM
- IC50 (Cholinesterase [3]): 1280 nM
- IC50 (Acetylcholinesterase [12]): 3600 nM
- IC50 (Cholinesterase [13]): 1030 nM
- Papp at 50 ug/ml (in vitro): 10.9 ×10⁻⁶ cm/s

SMILES: COc1ccc2[nH]cc(CCNC(=O)C3CCN(Cc4ccccc4C)CC3)c2c1
- Activity [10]: Non-toxic
- Activity (PC-12 [11]): Active
- IC50 (Acetylcholinesterase [2]): 4420 nM
- IC50 (Cholinesterase [3]): 3210 nM
- IC50 (Acetylcholinesterase [12]): 7420 nM
- IC50 (Cholinesterase [13]): 3010 nM
- Papp at 50 ug/ml (in vitro): 9.37 ×10⁻⁶ cm/s

SMILES: O=C(CCc1c[nH]c2ccccc12)NC1CCN(Cc2ccccc2)CC1
- Activity [10]: Non-toxic
- IC50 (Acetylcholinesterase [2]): 5750 nM
- IC50 (Cholinesterase [3]): 370 nM
- IC50 (Acetylcholinesterase [12]): 8320 nM
- IC50 (Cholinesterase [13]): 120 nM

SMILES: Cc1ccccc1CN1CCC(C(=O)NCCc2c[nH]c3ccccc23)CC1
- Activity [10]: Non-toxic
- Activity (PC-12 [11]): Active
- IC50 (Acetylcholinesterase [2]): 2250 nM
- IC50 (Cholinesterase [3]): 1500 nM
- IC50 (Acetylcholinesterase [12]): 3560 nM
- IC50 (Cholinesterase [13]): 400 nM
- Papp at 50 ug/ml (in vitro): 8.9 ×10⁻⁶ cm/s

SMILES: COc1ccc2[nH]cc(CCNC(=O)C3CCN(Cc4ccccc4)CC3)c2c1
- IC50 (Acetylcholinesterase [2]): 9270 nM
- IC50 (Cholinesterase [3]): 8210 nM
- IC50 (Acetylcholinesterase [12]): 12200 nM
- IC50 (Cholinesterase [13]): 2210 nM

SMILES: Cc1ccc(CN2CCC(CC(=O)NCCc3c[nH]c4ccccc34)CC2)cc1
- IC50 (Acetylcholinesterase [2]): 1940 nM
- IC50 (Cholinesterase [3]): 1290 nM
- IC50 (Acetylcholinesterase [12]): 4940 nM
- IC50 (Cholinesterase [13]): 290 nM

SMILES: COc1ccc2[nH]cc(CCNC(=O)CC3CCN(Cc4ccccc4Cl)CC3)c2c1
- IC50 (Acetylcholinesterase [2]): 16800 nM
- IC50 (Cholinesterase [3]): 1280 nM

SMILES: CC(=O)[C@H]1CC[C@H]2[C@@H]3CCC4=CC(=O)CC[C@]4(C)[C@H]3CC[C@]12C [PROGESTERONE]
- Papp at 50 ug/ml (in vitro): 5.62 ×10⁻⁶ cm/s

SMILES: O=C(CC1CCN(Cc2ccccc2)CC1)NCCc1c[nH]c2ccccc12
- IC50 (Acetylcholinesterase [2]): 2100 nM
- IC50 (Cholinesterase [3]): 1100 nM
- IC50 (Acetylcholinesterase [12]): 3800 nM
- IC50 (Cholinesterase [13]): 950 nM
- Papp at 50 ug/ml (in vitro): 7.4 ×10⁻⁶ cm/s

SMILES: Cc1ccccc1CN1CCC(CC(=O)NCCc2c[nH]c3ccccc23)CC1
- Activity [10]: Non-toxic
- Activity (PC-12 [11]): Active
- IC50 (Acetylcholinesterase [2]): 940 nM
- IC50 (Cholinesterase [3]): 1490 nM
- IC50 (Acetylcholinesterase [12]): 1540 nM
- IC50 (Cholinesterase [13]): 1420 nM
- Papp at 50 ug/ml (in vitro): 6.91 ×10⁻⁶ cm/s

SMILES: COc1ccc2[nH]cc(CCNC(=O)CC3CCN(Cc4cccc(C)c4)CC3)c2c1
- IC50 (Acetylcholinesterase [2]): 9500 nM
- IC50 (Cholinesterase [3]): 4400 nM
- IC50 (Acetylcholinesterase [12]): 13500 nM
- IC50 (Cholinesterase [13]): 1400 nM

SMILES: COc1ccc2[nH]cc(CCNC(C)=O)c2c1
- Activity (PC-12 [1]): Active

SMILES: Cc1cccc(CN2CCC(CC(=O)NCCc3c[nH]c4ccccc34)CC2)c1
- IC50 (Acetylcholinesterase [2]): 1630 nM
- IC50 (Cholinesterase [3]): 950 nM
- IC50 (Acetylcholinesterase [12]): 4630 nM
- IC50 (Cholinesterase [13]): 850 nM

SMILES: O=C(CC1CCN(Cc2ccccc2Cl)CC1)NCCc1c[nH]c2ccccc12
- IC50 (Acetylcholinesterase [2]): 28200 nM
- IC50 (Cholinesterase [3]): 1490 nM

SMILES: O=C(CC1CCN(Cc2ccc(Cl)cc2)CC1)NCCc1c[nH]c2ccccc12
- IC50 (Acetylcholinesterase [2]): 22400 nM
- IC50 (Cholinesterase [3]): 5290 nM

SMILES: COc1ccc2[nH]cc(CCNC(=O)CC3CCN(Cc4cccc(Cl)c4)CC3)c2c1
- IC50 (Acetylcholinesterase [2]): 9500 nM
- IC50 (Cholinesterase [3]): 4400 nM

SMILES: COc1ccc2[nH]cc(CCNC(=O)CC3CCN(Cc4ccc(Cl)cc4)CC3)c2c1
- IC50 (Acetylcholinesterase [2]): 20600 nM
- IC50 (Cholinesterase [3]): 6480 nM

SMILES: COc1ccc2[nH]cc(CCNC(=O)CC3CCN(Cc4ccc(C)cc4)CC3)c2c1
- IC50 (Acetylcholinesterase [2]): 5260 nM
- IC50 (Cholinesterase [3]): 1480 nM
- IC50 (Acetylcholinesterase [12]): 9260 nM
- IC50 (Cholinesterase [13]): 1060 nM

SMILES: COc1ccc2[nH]cc(CCNC(=O)C3CCN(Cc4ccccc4[N+](=O)[O-])CC3)c2c1
- IC50 (Acetylcholinesterase [2]): 54200 nM
- IC50 (Cholinesterase [3]): 28500 nM

SMILES: O=C(NCCc1c[nH]c2ccccc12)C1CCN(Cc2ccccc2)CC1
- IC50 (Acetylcholinesterase [2]): 5550 nM
- IC50 (Cholinesterase [3]): 3300 nM
- IC50 (Acetylcholinesterase [12]): 7850 nM
- IC50 (Cholinesterase [13]): 2000 nM
